In brackets after ≈: the same amount, converted by molar mass.
How the values were obtained:
[1] = system: HSV-1; test: HSV Antiviral (ELISA) Assay in Vero cells; type: cell-based, herpes simplex virus type 1; conditions: HSV-1, Vero cells; for IC50: Human alphaherpesvirus 1, read-out: IC50 (ug/ml) HSV
Procedure, shortened: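 Viral replication was quantified by cell-fixed ELISA for HSV glycoprotein D, using a β-galactosidase reporter and fluorogenic umbelliferyl substrate, about 24 h after HSV-1 infection (MOI 0.006) of Vero cells. Compounds, at several concentrations, were added 30 min pre-infection. IC50 was derived from fluorescence relative to the compound-free signal.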

[2] = system: VZV strain Ellen; test: VZV Antiviral (ELISA) Assay in human foreskin fibroblast cells; type: cell-based, varicella-zoster virus; conditions: for inhibition at 10 µg/mL / IC50: Human alphaherpesvirus 3, Fibroblast; for inhibition at 10 µg/mL: read-out: % inhibition 10 ug/ml VZV, 10 ug/ml; for IC50: read-out: IC50 (ug/ml) VZV
Procedure, shortened: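 HFF cells infected with VZV Ellen at low multiplicity (<0.1) overnight were seeded at 3.5×10^4 cells/well in DMEM with 2% FBS plus compound and incubated three days at 37° C., 5% CO2. Viral replication was read by ELISA against glycoprotein II with β-galactosidase fluorogenic readout (ex 365/em 450 nm); IC50 relative to no-compound fluorescence.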

[3] = system: HCMV recombinant mutant virus (RV145); test: microbe, parasite or virus in culture; type: cell-based, human cytomegalovirus; conditions: for IC50: Human betaherpesvirus 5, read-out: IC50 ug/ml HCMV, HCMV
Text: Microtiter plate assay. Ninety-six well plate cultures of human foreskin fibroblasts are infected in the presence of inhibitor compound with a HCMV recombinant mutant virus whose genome contains the prokaryotic beta-glucuronidase gene (Jefferson, R. A., S. M. Burgess, and D. Hirsh. 1986. Beta-glucuronidase from Escherichia coli as a gene fusion marker. Proc. Natl. Acad. Sci. USA 83:8447-8451) whose expression is controlled by a viral promoter. An example of such a virus is RV145 (Jones, T. R., V. P. Muzithras, and Y. Gluzman. 1991. Replacement mutagenesis of the human cytomegalovirus genome: US10 and US11 gene products are nonessential. J. Virol. 65:5860-5872). Since it is under the control of a viral promoter, beta-glucuronidase expression is an indirect indicator of growth and replication of HCMV in this assay. At 96 hours post-infection, the infected cell lysates are prepared (using 50 mM sodium phosphate [pH7.0]containing 0.1% Triton X-100 and 0.1% sarkosyl) and assayed for beta-glucuronidase activity using a substrate for the enzyme which when cleaved yields either a product which can be measured […] in a spectrophotometer or fluorescently in a microfluorimeter. Examples of such substrates are p-nitrophenyl-beta-D-glucuronide and methylumbelliferylglucuronide, respectively. The presence of an antiviral compound is indicated by the reduced expression of the HCMV genome resident beta-glucuronidase gene, compared to the absence of inhibitor. […] Data from this assay generated using varying amounts of inhibitor compound is also used to estimate the IC50 of an inhibitor compound.

Structure (SMILES) | IC50 [1] [µg/mL] | inhibition at 10 µg/mL [2] [%] | IC50 [2] [µg/mL] | IC50 [3] [µg/mL] | IC50 (ug/ml) HSV [1] [µg/mL] | IC50 (ug/ml) VZV [2] [µg/mL] | % inhibition 10 ug/ml VZV [2] [%] | IC50 ug/ml HCMV [3] [µg/mL]
COc1cc(C)c(Cl)cc1NC(=S)Nc1ccc(NC(=O)c2ccccc2F)cc1 [Example 849, N-{4-[3-(5-Chloro-2-methoxy-4-methyl-phenyl)-thioureido]-phenyl}-2-fluoro-benzamide] | > 10 | 38 | > 10 | > 10 | – | – | – | –
CCCCOc1cccc(C(=O)Nc2ccc(NC(=S)Nc3cc(Cl)c(OC)cc3OC)cc2)c1 [Example 219] | – | – | – | – | 2.5 (≈ 4.86 µM) | >10 | 30 | >10
O=C(Nc1ccc(NC(=S)Nc2ccc(Cl)c(C(F)(F)F)c2)cc1)c1ccccc1F [Example 244] | – | – | – | – | >10 | >10 | 18 | >10
CC(NC(=S)Nc1ccc(NC(=O)c2cc3ccccc3o2)cc1)c1cc2ccccc2o1 (stereo not shown) [Example 981, Benzofuran-2-carboxylic acid {4-[3-(1-benzofuran-2-yl-ethyl)-thioureido]-phenyl}-amide] | > 10 | – | 0.2 (≈ 0.439 µM) | > 10 | – | – | – | –
CCCCSc1ccc(NC(=S)Nc2ccc(NC(=O)c3ccccc3F)cc2)cc1Cl [Example 387] | – | – | – | – | >10 | >10 | 26 | >10
CC(NC(=S)Nc1ccc(NC(=O)c2ccccc2F)cc1)c1ccccc1Br (stereo not shown) [Example 783] | – | – | – | – | >10 | 0.3 (≈ 0.635 µM) | – | 1.1 (≈ 2.33 µM)
O=C(Nc1ccc(NC(=S)Nc2ccc(SC3CCCCC3)c(Cl)c2)cc1)c1ccccc1F [Example 357] | – | – | – | – | >10 | 40 (≈ 77.8 µM) | 44 | 9 (≈ 17.5 µM)
COc1cc(OC)c(NC(=S)Nc2ccc(NC(=O)c3cccc(O)c3)cc2)cc1Cl [Example 254] | – | – | – | – | 0.9 (≈ 1.97 µM) | 4 (≈ 8.73 µM) | 110 | 4 (≈ 8.73 µM)
COc1cc(OC)c(NC(=S)Nc2ccc(NC(=O)c3ccccc3SC)cc2)cc1Cl [Example 194] | – | – | – | – | 1.5 (≈ 3.07 µM) | >10 | 45 | >10
COc1cc(OC)c(NC(=S)Nc2ccc(NC(=O)c3cccc(OCC(=O)O)c3)cc2)cc1Cl [Example 222] | – | – | – | – | >50 | >10 | 17 | >50
COc1cc(OC)c(NC(=S)Nc2ccc(NC(=O)c3ccc(F)cc3)cc2)cc1Cl [Example 116] | – | – | – | – | 2 (≈ 4.35 µM) | >10 | 0 | 3 (≈ 6.52 µM)
CSc1ccc(NC(=S)Nc2ccc(NC(=O)c3ccccc3F)cc2Cl)cc1Cl [Example 460] | – | – | – | – | 0.09 (≈ 0.187 µM) | >10 | 50 | 2 (≈ 4.16 µM)
O=C(Nc1ccc(NC(=S)NCCSc2ccccc2)cc1)c1ccccc1F [Example 656] | – | – | – | – | 5 (≈ 11.7 µM) | – | – | >0.5
COc1cc(OC)c(NC(=S)Nc2ccc(NC(=O)c3cccc(F)c3F)cc2)cc1Cl [Example 186] | – | – | – | – | 0.2 (≈ 0.418 µM) | >10 | 52 | >10
CC(C)c1cccc(NC(=S)Nc2ccc(NC(=O)c3ccccc3F)cc2)c1 [Example 452] | – | – | – | – | 4 (≈ 9.82 µM) | 1 (≈ 2.45 µM) | 75 | 2 (≈ 4.91 µM)
CN(C)CC(=O)Nc1ccc(NC(=S)Nc2ccc(NC(=O)c3ccccc3F)cc2)cc1Cl [Example 362] | – | – | – | – | >10 | >10 | 8 | >10
CC(=O)c1cccc(NC(=S)Nc2ccc(NC(=O)c3ccccc3F)cc2)c1 [Example 965, N-{4-[3-(3-Acetyl-phenyl)-thioureido]-phenyl}-2-fluoro-benzamide] | 5 (≈ 12.3 µM) | 12 | > 10 | > 10 | – | – | – | –

Structure (SMILES) | IC50 [1] [µg/mL] | inhibition at 10 µg/mL [2] [%] | IC50 [2] [µg/mL] | IC50 [3] [µg/mL] | IC50 (ug/ml) HSV [1] [µg/mL] | IC50 (ug/ml) VZV [2] [µg/mL] | % inhibition 10 ug/ml VZV [2] [%] | IC50 ug/ml HCMV [3] [µg/mL]
O=C(Nc1ccc(NC(=S)Nc2ccc3scnc3c2)cc1)c1ccccc1F [Example 484] | – | – | – | – | 0.4 (≈ 0.947 µM) | >10 | 28 | >10
O=C(Nc1ccc(NC(=S)NCc2cccc(I)c2)cc1)c1ccccc1F [Example 661] | > 10 | – | – | > 0.5 | – | – | – | –
CC(NC(=S)Nc1ccc(NC(=O)c2cnc3ccccc3c2)cc1)c1ccc(F)cc1 (stereo not shown) [Example 988, Quinoline-3-carboxylic acid (4-{3-[1-(4-fluoro-phenyl)-ethyl]-thioureido}-phenyl)-amide] | > 10 | – | 3.4 (≈ 7.65 µM) | > 10 | – | – | – | –
Cc1ccc(NC(=S)Nc2ccc(NC(=O)c3ccccc3F)cc2)cc1Cl [Example 231] | – | – | – | – | 0.5 (≈ 1.21 µM) | >10 | 11 | >10
Cc1cc(CCNC(=S)Nc2ccc(NC(=O)c3ccccc3F)cc2)ccc1N(C)C [Example 673] | – | – | – | – | 7 (≈ 15.5 µM) | – | – | >0.5
CC1CN(c2ccc(CNC(=S)Nc3ccc(NC(=O)c4ccccc4F)cc3)cc2C(F)(F)F)CCN1 (stereo not shown) [Example 687] | – | – | – | – | 1.2 (≈ 2.2 µM) | – | – | >0.5
O=C(Nc1ccc(NC(=S)NC(c2ccccc2)c2ccc(F)cc2)cc1)c1ccccc1F (stereo not shown) [Example 772] | – | – | – | – | >10 | – | – | 0.35 (≈ 0.739 µM)
CCC(NC(=S)Nc1ccc(NC(=O)c2ccccc2F)cc1)c1ccc(F)cc1 (stereo not shown) [Example 771] | – | – | – | – | >10 | – | – | 0.4 (≈ 0.94 µM)
O=C(Nc1ccc(NC(=S)Nc2ccc(Cl)cc2)cc1)c1ccccc1F [Example 946, N-{4-[3-(4-Chloro-phenyl)-thioureido]-phenyl}-2-fluoro-benzamide] | > 10 | – | – | > 10 | – | – | – | –
O=C(Nc1ccc(NC(=S)NCCOc2ccc(I)cc2)cc1)c1ccccc1F [Example 696] | 10 (≈ 18.7 µM) | – | – | > 3 | – | – | – | –
O=C(Nc1ccc(NC(=S)NCCOc2ccc(Br)cc2)cc1)c1ccccc1F [Example 695] | – | – | – | – | >10 | – | – | >3
O=C(Nc1ccc(NC(=S)NCCSc2cccc(Br)c2)cc1)c1ccccc1F [Example 680] | – | – | – | – | >10 | – | – | >0.5
O=C(Nc1ccc(NC(=S)NCCc2ccc(Cl)c(Cl)c2)cc1)c1ccccc1F [Example 719] | – | – | – | – | >10 | – | – | >0.5
O=C(Nc1ccc(NC(=S)NCc2cc(C(F)(F)F)ccc2F)cc1)c1ccccc1F [Example 669] | > 10 | – | – | > 0.5 | – | – | – | –
O=C(Nc1ccc(NC(=S)NCc2ccc(F)c(Cl)c2)cc1)c1ccccc1F [Example 677] | – | – | – | – | >10 | – | – | >0.5
CN(C)c1cc(CCNC(=S)Nc2ccc(NC(=O)c3ccccc3F)cc2)cc(C(F)(F)F)c1 [Example 653] | – | – | – | – | >10 | – | – | >0.5
COc1ccccc1C(=O)Nc1ccc(NC(=S)NC(C)c2ccc(F)cc2)cc1 (stereo not shown) [Example 752] | – | – | – | – | >10 | – | – | >0.5
